Tested on: respiratory epithelial cells

Substance: IL-13: human IL-13 (Peprotech, Inc.) added to the medium at 50 ng/mL to stimulate respiratory epithelial cells
- KCNMA1 (47575_g_at) expression change (lot 2, Day 3, AI): −3.5
- KCNMA1 (53796_at) expression change (lot 2, Day 3, AI): −4.8
- KIAA0878 (48793_at) expression change (lot 2, Day 3, AI): −2.1
- KLF7 34216_at expression change (lot 2, Day 3, AI): −2.6
- KLF7 (42769_at) expression change (lot 2, Day 3, AI): −5.7
- KRT15 37582_at expression change (lot 2, Day 3, AI): −2.7
- LOC51297 (49616_at) expression change (lot 2, Day 3, AI): −13.4
- LOC51297 (55440_at) expression change (lot 2, Day 3, AI): −10.8
- LOC51297 (55442_g_at) expression change (lot 2, Day 3, AI): −14.4
- LOC129642 (42065_at) expression change (lot 2, Day 3, AI): −2.8
- LOC129642 (58288_at) expression change (lot 2, Day 3, AI): −3
- MGC12536 46924_at expression change (lot 2, Day 3, AI): −4.2
- MGC13102 (54791_at) expression change (lot 2, Day 3, AI): −2.1
- MGC14128 55924_at expression change (lot 2, Day 3, AI): −3.3
- MGC14128 (51669_r_at) expression change (lot 2, Day 3, AI): −3
- MGC14597 (46030_at) expression change (lot 2, Day 3, AI): −8.5
- N52554 47432_at expression change (lot 2, Day 3, AI): −2.3
- N71183 52473_at expression change (lot 2, Day 3, AI): −2.2
- PR01489 57777_at expression change (lot 2, Day 3, AI): −3.3
- PSCA (63958_at) expression change (lot 2, Day 3, AI): −5.5
- RAC2 32737_at expression change (lot 2, Day 3, AI): −17.4
- RGC32 (57044_s_at) expression change (lot 2, Day 3, AI): −2.2
- SCNN1B 39682_at expression change (lot 2, Day 3, AI): −12.3
- SCYB14 (65823_at) expression change (lot 2, Day 3, AI): −2.1
- SERPINA3 (75248_at) expression change (lot 2, Day 3, AI): −35.8
- SLC11A3 (45826_at) expression change (lot 2, Day 3, AI): −2.5
- SLC34A2 (48048_at) expression change (lot 2, Day 3, AI): −4.3
- SPON2 52576_s_at expression change (lot 2, Day 3, AI): −3.1
- STEAP 40297_at expression change (lot 2, Day 3, AI): −2.6
- TCF8 33439_at expression change (lot 2, Day 3, AI): −2.7
- TGFBI (68339_at) expression change (lot 2, Day 3, AI): −2.8
- TNFAIP2 (74633_at) expression change (lot 2, Day 3, AI): −2.2
- TNRC3 41246_at expression change (lot 2, Day 3, AI): −2
- TPM1 36790_at expression change (lot 2, Day 3, AI): −5.4
- TPM1 36791_g_at expression change (lot 2, Day 3, AI): −3.5
- TPM1 36792_at expression change (lot 2, Day 3, AI): −5
- UCP2 37591_at expression change (lot 2, Day 3, AI): −2.3
- UGB 39220_at expression change (lot 2, Day 3, AI): −17.8
- VEGFC 1934_s_at expression change (lot 2, Day 3, AI): −2.5
- VIM 34091_s_at expression change (lot 2, Day 3, AI): −3.1
- W72331 49486 at expression change (lot 2, Day 3, AI): −7.8
- AA149682 (51925_at) expression fold change (lot 2, Day 3, AI method): 2.2 fold
- AA167714 (54897_at) expression fold change (lot 2, Day 3, AI method): 2.9 fold
- AA420479 (52539_at) expression fold change (lot 2, Day 3, AI method): 2.2 fold
- AA541787 (52622_at) expression fold change (lot 2, Day 3, AI method): 2.2 fold
- AA582926 (52307_at) expression fold change (lot 2, Day 3, AI method): 2.2 fold
- AA604375 (44127_at) expression fold change (lot 2, Day 3, AI method): 2.1 fold
- ADAM8 (40712_at) expression, fold change upon IL-13 stimulation (lot 2, Day 3, AI method): 2.7 fold
- ADAM28 (35479_at) expression, fold change upon IL-13 stimulation (lot 2, Day 3, AI method): 3.5 fold
- AI310524 (47087_at) expression fold change (lot 2, Day 3, AI method): 2 fold
- AI565105 (54886_at) expression fold change (lot 2, Day 3, AI method): 2.2 fold
- AI659927 (54033_at) expression fold change (lot 2, Day 3, AI method): 4.6 fold
- AI718385 (53061_at) expression fold change (lot 2, Day 3, AI method): 2.2 fold
- AI809925 (53010_at) expression fold change (lot 2, Day 3, AI method): 2.2 fold
- AI989346 (52327_s_at) expression fold change (lot 2, Day 3, AI method): 2.2 fold
- AKAP2 (35985_at) expression, fold change upon IL-13 stimulation (lot 2, Day 3, AI method): 2.5 fold
- AKAP2 (48035_at) expression fold change (lot 2, Day 3, AI method): 3 fold
- ALOX15 (34636_at) expression, fold change upon IL-13 stimulation (lot 2, Day 3, AI method): 112.2 fold
- ARL7 (57151_at) expression fold change (lot 2, Day 3, AI method): 6.1 fold
- AW019985 (48826_s_at) expression fold change (lot 2, Day 3, AI method): 9.8 fold
- BAL (52167_at) expression fold change (lot 2, Day 3, AI method): 2.7 fold
- BRCA1 (626_s_at) expression fold change (lot 2, Day 3, AI method): 19.3 fold
- BST2 (39061_at) expression, fold change upon IL-13 stimulation (lot 2, Day 3, AI method): 5.8 fold
- C21orf11 (58957_at) expression fold change (lot 2, Day 3, AI method): 7.1 fold
- CCND3 (1794_at) expression fold change upon IL-13 stimulation (lot 2, Day 3, AI method): 2.3 fold
- CCND3 (1795_g_at) expression fold change upon IL-13 stimulation (lot 2, Day 3, AI method): 2.4 fold
- CD47 (37890_at) expression fold change (lot 2, Day 3, AI method): 2.4 fold
- CDH6 (1620_at) expression fold change upon IL-13 stimulation (lot 2, Day 3, AI method): 5.6 fold
- CDH6 (57421_at) expression fold change (lot 2, Day 3, AI method): 2.9 fold
- CDH26 (46916_at) expression fold change (lot 2, Day 3, AI method): 10.5 fold
- CH25H (32363_at) expression, fold change upon IL-13 stimulation (lot 2, Day 3, AI method): 14.9 fold
- CLDN1 (46260_at) expression fold change (lot 2, Day 3, AI method): 2.4 fold
- CLDN4 (35276_at) expression, fold change upon IL-13 stimulation (lot 2, Day 3, AI method): 2.2 fold
- CTSC (133_at) expression, fold change upon IL-13 stimulation (lot 2, Day 3, AI method): 3.9 fold
- CXCL16 (44095_at) expression fold change (lot 2, Day 3, AI method): 2.3 fold
- DBCCR1 (40292_at) expression, fold change upon IL-13 stimulation (lot 2, Day 3, AI method): 7.9 fold
- DD96 (31610_at) expression, fold change upon IL-13 stimulation (lot 2, Day 3, AI method): 5.3 fold
- DKFZP564O0823 (41402_at) expression, fold change upon IL-13 stimulation (lot 2, Day 3, AI method): 5.4 fold
- DKFZP566J091 (57197_at) expression fold change (lot 2, Day 3, AI method): 45.3 fold
- DKFZp564N1116 (37784_at) expression, fold change upon IL-13 stimulation (lot 2, Day 3, AI method): 5 fold
- DNAJA1 (276_at) expression fold change upon IL-13 stimulation (lot 2, Day 3, AI method): 2.2 fold
- DPP4 (34823_at) expression fold change upon IL-13 stimulation (lot 2, Day 3, AI method): 7.6 fold
- DPYD (38220_at) expression fold change upon IL-13 stimulation (lot 2, Day 3, AI method): 3.9 fold
- EMILIN-2 (51628_at) expression fold change (lot 2, Day 3, AI method): 2.9 fold
- FABP4 (38430_at) expression, fold change upon IL-13 stimulation (lot 2, Day 3, AI method): 2.5 fold
- FBP1 (36495_at) expression fold change upon IL-13 stimulation (lot 2, Day 3, AI method): 4.4 fold
- FETUB (32620_at) expression fold change (lot 2, Day 3, AI method): 37.6 fold
- FETUB (33101_g_at) expression fold change (lot 2, Day 3, AI method): 24.7 fold
- FLJ10261 (43366_at) expression fold change (lot 2, Day 3, AI method): 11.2 fold
- FLJ10261 (43963_at) expression fold change (lot 2, Day 3, AI method): 14.4 fold
- FLJ22693 (53777_at) expression fold change (lot 2, Day 3, AI method): 2.2 fold
- FUT10 (908_at) expression fold change upon IL-13 stimulation (lot 2, Day 3, AI method): 8.9 fold
- GADD45G (39154_at) expression fold change upon IL-13 stimulation (lot 2, Day 3, AI method): 5.3 fold
- GBP5 (52615_at) expression fold change (lot 2, Day 3, AI method): 4.5 fold
- GS3686 (36927_at) expression, fold change upon IL-13 stimulation (lot 2, Day 3, AI method): 6.4 fold
- HAS3 (54604_at) expression fold change (lot 2, Day 3, AI method): 2 fold
- HDAC9 (37483_at) expression fold change upon IL-13 stimulation (lot 2, Day 3, AI method): 3.7 fold
- HS3ST1 (41556_s_at) expression fold change upon IL-13 stimulation (lot 2, Day 3, AI method): 5.8 fold
- HSPA5 (47634_at) expression fold change (lot 2, Day 3, AI method): 3.7 fold
- ICAMt (32640_at) expression fold change upon IL-13 stimulation (lot 2, Day 3, AI method): 2.8 fold
- IFI27 (425_at) expression, fold change upon IL-13 stimulation (lot 2, Day 3, AI method): 2.5 fold
- IFI27 (48864_at) expression fold change (lot 2, Day 3, AI method): 2.1 fold
- IFI35 (464_s_at) expression, fold change upon IL-13 stimulation (lot 2, Day 3, AI method): 4.5 fold
- IFI44 (37641_at) expression, fold change upon IL-13 stimulation (lot 2, Day 3, AI method): 3.8 fold
- IFIT1 (915_at) expression, fold change upon IL-13 stimulation (lot 2, Day 3, AI method): 9 fold
- IFIT1 (32814_at) expression, fold change upon IL-13 stimulation (lot 2, Day 3, AI method): 4 fold
